Key:
[1] = in vivo, cited from earlier work
[2] = tested on: CT26 colon carcinoma cells; assay: CT26 tumor model, BNT411 alone and with oxaliplatin (Example 4); type: in vivo, mouse; conditions: BNT411 3 mg/kg i.v. eight times; oxaliplatin 5 mg/kg i.p. four times; group mean tumor volumes test vs control
Description: FIG. 5. Anti-tumoral efficacy of BNT411 alone and in combination with oxaliplatin in a tumor mouse model. Mice (n=12 or 13 per group) subcutaneously inoculated with 2.5×10^5 CT26 colon carcinoma cells were used as tumor mouse model. Oxaliplatin was administered intraperitoneally (i.p.) (5 mg/kg, four times with 4 to 5 days between injections). BNT411 was administered i.v. at a dose level of 3 mg/kg eight times with 2 to 5 days interval between injections and at least 2 days after oxaliplatin therapy. Anti-tumor efficacy was evaluated by group mean tumor volumes in test versus control groups (vehicle only) on days 33 and 42 (at least 50% of test and control animals alive). IFNα levels in plasma were analyzed 1 h after first BNT411 administration and gp70+ T-cell populations in blood were analyzed on days 34 and 41. (A) Dosing schedule. (B) Graph showing the tumor volumes vs. days after inoculation. Group mean tumor volumes (±SEM (standard error of the mean)) for all live animals are shown. Treatment groups included nine to ten mice. Additionally, tumor volumes of animals that were euthanized due to tumor load were carried forward for as long as they were larger than the group median tumor volume (last observation carried forward (LOCF) values). Curves were discontinued for groups with less than 50% animals alive. (C) Graph showing IFNα serum level 60 min after first injection for the 4 groups (control (vehicle); BNT411 alone; oxaliplatin alone; BNT411 and oxaliplatin). IFNα levels in control and test groups are shown by vertical bars (±SEM), Statistical significance between groups is indicated by horizontal lines. P-value summary: ****=p≤0.0001; ***=p≤0.001; **=p≤0.01, […].
Serum levels of IFNα were measured by sandwich ELISA (Pbl Assay Systems) according to manufacturer's instructions.
BALB/c mice were inoculated s.c. with 2.5×10^5−5×10^5 CT26-WT into the flank, respectively. Once tumors reached palpable sizes, mice were randomly divided into treatment and control groups. Tumor volume was measured unblinded with a caliper and calculated using the formula (a×b^2)/2 (a being the largest and b being the smallest diameter of the tumor). Tumor growth was documented as mean tumor size with standard error disregarding single distant outliers. Treatment was initiated after 7-10 d with tumors having reached an average volume of about 10 mm^3. […]
Oxaliplatin was administered intraperitoneally (i.p.) (5 mg/kg, four times with 4 to 5 days between injections). […] Anti-tumor efficacy was evaluated by group mean tumor volumes in test versus control groups (vehicle only) on study days 33 and 42, (at least 50% of test and control animals alive). IFNα levels in plasma were analyzed 1 h after first BNT411 administration and gp70+ T-cell populations in blood on study days 34 and 41.

## CCc1nc2c(N)nc3ccccc3c2n1CCCCNS(C)(=O)=O [852A]
[1]
  tolerability of repeat-dose regimens: not well tolerated

## CC(C)Cn1cnc2c(N)nc3ccccc3c21 [imiquimod]
[1]; iv
  tolerability of repeated i.v. administrations at a systemically effective IFNa-inducing dose level: dose limiting adverse reactions

## O=C1[O][Pt]2([NH][C@@H]3CCCC[C@H]3[NH]2)[O]C1=O [oxaliplatin, reference compound]
[2]
  anti-tumor efficacy, T/C value: 50.7%

— US20240415828A1, “TLR7 AGONIST AND COMBINATIONS FOR CANCER TREATMENT” (BIONTECH SE, priority 2021, published 2024)
